Converted amounts (≈) assume the structure as drawn.
Columns and labels:
[1] = in vivo; details: Sprague-Dawley, rat, po, 2.1 mg/kg
[2] = in vivo; details: Swiss outbred, mouse, po, 10 mg/kg
[3] = Volume of distribution in Sprague-Dawley rat at 2.6 mg/kg, iv; assay type: ADME, organism-based; set-up: dose 2.6 mg/kg, route intravenous; details: in vivo
[4] = system: Liver microsomes; experiment: Intrinsic clearance in human liver microsomes; assay type: ADME, Microsome
[5] = system: Plasmodium falciparum; experiment: Antimalarial activity against chloroquine-resistant Plasmodium falciparum Dd2 by [3H]hypoxanthine incorporation assay in presence of human serum; assay type: functional, organism-based
[6] = system: Plasmodium falciparum; experiment: Antimalarial activity against Plasmodium falciparum D10 transfected with yeast DHODH by [3H]hypoxanthine incorporation assay; assay type: functional, organism-based
[7] = Terminal elimination half life in Swiss outbred mouse at 10 mg/kg, po; assay type: ADME, organism-based; set-up: dose 10 mg/kg, route oral; details: in vivo, read-out: beta t1/2 (converted)
[8] = Cmax in Sprague-Dawley rat at 18.8 mg/kg, po; assay type: ADME, organism-based; set-up: dose 18.8 mg/kg, route oral; details: in vivo
[9] = system: Plasmodium falciparum; experiment: Antimalarial activity against Plasmodium falciparum 3D7 by [3H]hypoxanthine incorporation assay in presence of human serum; assay type: functional, organism-based
[10] = Terminal elimination half life in Sprague-Dawley rat at 46.7 mg/kg, po; assay type: ADME, organism-based; set-up: dose 46.7 mg/kg, route oral; details: in vivo, read-out: beta t1/2 (converted)
[11] = Cmax in Swiss outbred mouse at 0.4 mg/kg, po; assay type: ADME, organism-based; set-up: dose 0.4 mg/kg, route oral; details: in vivo
[12] = AUC (0 to infinity) in Sprague-Dawley rat at 2.1 mg/kg, po; assay type: ADME, organism-based; set-up: time infinity, dose 2.1 mg/kg, route oral; details: plasma
[13] = Plasma protein binding in Sprague-Dawley rat at 2.1 to 46.7 mg/kg, po; assay type: ADME, organism-based; set-up: dose 2.1-46.7 mg/kg, route oral; details: read-out: PPB (converted)
[14] = in vivo; details: Swiss outbred, mouse, po, 50 mg/kg
[15] = Terminal elimination half life in Swiss outbred mouse at 2 mg/kg, po; assay type: ADME, organism-based; set-up: dose 2 mg/kg, route oral; details: in vivo, read-out: beta t1/2 (converted)
[16] = Aqueous solubility of the compound at pH 6.5; assay type: physicochemical
[17] = Cmax in human RBC engrafted NOD-SCID IL-2Rgamma-null mouse at 7 mg/kg, po; assay type: ADME, organism-based; set-up: dose 7 mg/kg, route oral; details: in vivo
[18] = Terminal elimination half life in Sprague-Dawley rat at 0.9 mg/kg, iv; assay type: ADME, organism-based; set-up: dose 0.9 mg/kg, route intravenous; details: in vivo, read-out: beta t1/2 (converted)
[19] = system: Mus musculus; experiment: Time plasma concentration remained above 1 uM in Swiss outbred mouse plasma at 0.4 mg/kg, po; assay type: ADME, organism-based; set-up: dose 0.4 mg/kg, route oral; details: in vivo
[20] = AUC (0 to infinity) in Swiss outbred mouse plasma at 10 mg/kg, po; assay type: ADME, organism-based; set-up: time infinity, dose 10 mg/kg, route oral
[21] = Terminal elimination half life in Sprague-Dawley rat at 18.8 mg/kg, po; assay type: ADME, organism-based; set-up: dose 18.8 mg/kg, route oral; details: in vivo, read-out: beta t1/2 (converted)
[22] = system: Plasmodium falciparum; experiment: Antimalarial activity against Plasmodium falciparum 3D7 0087/N9 infected in human RBC engrafted NOD-SCID IL-2Rgamma-null mouse assessed as reduction in parasitemia administered orally 3 days post infection qd for 4 days measured 24 hrs after final dose by FACS analysis; assay type: functional; details: 3D7 0087/N9, po
[23] = in vivo; details: NOD-SCID IL-2Rgamma-null, mouse, po, 7 mg/kg
[24] = in vivo; details: Swiss outbred, mouse, po, 0.4 mg/kg
[25] = Clearance in Sprague-Dawley rat at 2.6 mg/kg, iv; assay type: ADME, organism-based; set-up: dose 2.6 mg/kg, route intravenous; details: in vivo
[26] = Volume of distribution in Sprague-Dawley rat at 0.9 mg/kg, iv; assay type: ADME, organism-based; set-up: dose 0.9 mg/kg, route intravenous; details: in vivo
[27] = Terminal elimination half life in Sprague-Dawley rat at 2.6 mg/kg, iv; assay type: ADME, organism-based; set-up: dose 2.6 mg/kg, route intravenous; details: in vivo, read-out: beta t1/2 (converted)
[28] = Cmax in Sprague-Dawley rat at 2.1 mg/kg, po; assay type: ADME, organism-based; set-up: dose 2.1 mg/kg, route oral; details: in vivo
[29] = AUC (0 to infinity) in Swiss outbred mouse plasma at 0.4 mg/kg, po; assay type: ADME, organism-based; set-up: time infinity, dose 0.4 mg/kg, route oral
[30] = system: Plasmodium falciparum; experiment: Antimalarial activity against chloroquine and pyrimethamine-resistant Plasmodium falciparum K1 by [3H]hypoxanthine incorporation assay in presence of human serum; assay type: functional, organism-based
[31] = Cmax in Swiss outbred mouse at 2 mg/kg, po; assay type: ADME, organism-based; set-up: dose 2 mg/kg, route oral; details: in vivo
[32] = in vivo; details: Swiss outbred, mouse, po, 2 mg/kg
[33] = Cmax in Swiss outbred mouse at 10 mg/kg, po; assay type: ADME, organism-based; set-up: dose 10 mg/kg, route oral; details: in vivo
[34] = Oral bioavailability in Sprague-Dawley rat at 46.7 mg/kg; assay type: ADME, organism-based; details: in vivo
[35] = system: HepG2; experiment: Cytotoxicity against human HepG2 cells; assay type: cell-based
[36] = Terminal elimination half life in Swiss outbred mouse at 50 mg/kg, po; assay type: ADME, organism-based; set-up: dose 50 mg/kg, route oral; details: in vivo, read-out: beta t1/2 (converted)
[37] = system: Plasmodium falciparum; experiment: Antimalarial activity against Plasmodium falciparum D10 by [3H]hypoxanthine incorporation assay; assay type: functional, organism-based
[38] = system: Plasmodium falciparum; experiment: Antimalarial activity against atovoquone-resistant Plasmodium falciparum TM90C2B by [3H]hypoxanthine incorporation assay in presence of human serum; assay type: functional, organism-based
[39] = system: L1210; experiment: Cytotoxicity against mouse L1210 cells; assay type: cell-based
[40] = system: Plasmodium falciparum; experiment: Antimalarial activity against drug-sensitive Plasmodium falciparum D6 by [3H]hypoxanthine incorporation assay in presence of human serum; assay type: functional, organism-based
[41] = Plasma protein binding in Swiss outbred mouse by ultracentrifugation; details: read-out: PPB (converted)
[42] = system: Plasmodium falciparum; experiment: Antimalarial activity against […] Plasmodium falciparum TM90C2A by [3H]hypoxanthine incorporation assay in presence of human serum; assay type: functional, organism-based
[43] = Oral bioavailability in Sprague-Dawley rat at 2.1 mg/kg; assay type: ADME, organism-based; details: in vivo
[44] = in vivo; details: Sprague-Dawley, rat, po, 18.8 mg/kg
[45] = system: Mus musculus; experiment: Time plasma concentration remained above 1 uM in Swiss outbred mouse plasma at 2 mg/kg, po; assay type: ADME, organism-based; set-up: dose 2 mg/kg, route oral; details: in vivo
[46] = AUC (0 to infinity) in Sprague-Dawley rat at 18.8 mg/kg, po; assay type: ADME, organism-based; set-up: time infinity, dose 18.8 mg/kg, route oral; details: plasma
[47] = Terminal elimination half life in Sprague-Dawley rat at 2.1 mg/kg, po; assay type: ADME, organism-based; set-up: dose 2.1 mg/kg, route oral; details: in vivo, read-out: beta t1/2 (converted)
[48] = system: Plasmodium falciparum; experiment: Antimalarial activity against Plasmodium falciparum 3D7 by [3H]hypoxanthine incorporation assay in presence of albumax; assay type: functional, organism-based
[49] = Cmax in human RBC engrafted NOD-SCID IL-2Rgamma-null mouse infected with Plasmodium falciparum 3D7 0087/N9 at 7 mg/kg, po; assay type: ADME, organism-based; set-up: dose 7 mg/kg, route oral; details: in vivo
[50] = Terminal elimination half life in Swiss outbred mouse at 0.4 mg/kg, po; assay type: ADME, organism-based; set-up: dose 0.4 mg/kg, route oral; details: in vivo, read-out: beta t1/2 (converted)
[51] = system: Plasma; experiment: Plasma protein binding in human by chromatographic method; assay type: ADME, cell-free
[52] = in vivo; details: NOD-SCID IL-2Rgamma-null, mouse, po, 7 mg/kg; remark: listed apart in the source
[53] = AUC (0 to infinity) in Swiss outbred mouse plasma at 2 mg/kg, po; assay type: ADME, organism-based; set-up: time infinity, dose 2 mg/kg, route oral
[54] = AUC (0 to infinity) in Sprague-Dawley rat at 46.7 mg/kg, po; assay type: ADME, organism-based; set-up: time infinity, dose 46.7 mg/kg, route oral; details: plasma
[55] = AUC (0 to infinity) in Swiss outbred mouse plasma at 50 mg/kg, po; assay type: ADME, organism-based; set-up: time infinity, dose 50 mg/kg, route oral
[56] = system: Plasmodium falciparum; experiment: Antimalarial activity against drug-sensitive Plasmodium falciparum HB3 by [3H]hypoxanthine incorporation assay in presence of human serum; assay type: functional, organism-based
[57] = system: Mus musculus; experiment: AUC (0 to 24 hrs) in human RBC engrafted NOD-SCID IL-2Rgamma-null mouse at 7 mg/kg, po; assay type: ADME, organism-based, Plasma; set-up: time < 24 hr, dose 7 mg/kg, route oral; details: in vivo
[58] = Oral bioavailability in Sprague-Dawley rat at 18.8 mg/kg; assay type: ADME, organism-based; details: in vivo
[59] = system: Mus musculus; experiment: Time plasma concentration remained above 1 uM in Swiss outbred mouse plasma at 10 mg/kg, po; assay type: ADME, organism-based; set-up: dose 10 mg/kg, route oral; details: in vivo
[60] = Cmax in Sprague-Dawley rat at 46.7 mg/kg, po; assay type: ADME, organism-based; set-up: dose 46.7 mg/kg, route oral; details: in vivo
[61] = in vivo; details: Sprague-Dawley, rat, po, 46.7 mg/kg
[62] = Cmax in Swiss outbred mouse at 50 mg/kg, po; assay type: ADME, organism-based; set-up: dose 50 mg/kg, route oral; details: in vivo

**Q.** Which results are given for `Cc1cc(Nc2ccc(S(F)(F)(F)(F)F)cc2)n2nc(C(C)(F)F)nc2n1` [DSM-265]?
**A.** Tmax [1]: 3.25 h; Tmax [2]: 1.5 h; Vd [3]: 5.9 L/kg; Intrinsic clearance [4]: < 5 µL/min/mg; EC50 [5]: 0.057 µM; EC50 [6]: > 20 µM; half-life [7]: 2.5 h; Cmax [8]: 3.9 µM; EC50 [9]: 0.046 µM; half-life [10]: 27.9 h; Cmax [11]: 0.06 µM; AUC(0-inf) [12]: 15.5 µM·h; fraction unbound [13]: 0.027; Tmax [14]: 2 h; half-life [15]: 3.5 h; solubility [16]: 30 µM (≈ 12.5 µg/mL); Cmax [17]: 6.1 µM; half-life [18]: 10.1 h; Time [19]: 0 h; AUC(0-inf) [20]: 22.6 µM·h; half-life [21]: 15.5 h; ED50 [22]: 2.8 mg/kg; ED90 [22]: 8.1 mg/kg; Tmax [23]: 6.7 h; Tmax [24]: 0.5 h; clearance [25]: 6 mL/min/kg; Vd [26]: 2.9 L/kg; half-life [27]: 12.6 h; Cmax [28]: 0.75 µM; AUC(0-inf) [29]: 0.45 µM·h; EC50 [30]: 0.057 µM; Cmax [31]: 0.44 µM; Tmax [32]: 1 h; Cmax [33]: 3.1 µM; bioavailability [34]: 61%; EC50 [35]: > 50 µM; half-life [36]: 3.2 h; EC50 [37]: 0.086 µM; EC50 [38]: 0.015 µM; EC50 [39]: > 50 µM; EC50 [40]: 0.022 µM; fraction unbound [41]: 0.004; EC50 [42]: 0.031 µM; bioavailability [43]: 66%; Tmax [44]: 7 h; Time [45]: 0 h; AUC(0-inf) [46]: 122 µM·h; half-life [47]: 11.6 h; EC50 [48]: 0.0078 µM; Cmax [49]: 5.3 µM; half-life [50]: 4.1 h; PPB [51]: 97.4%; Tmax [52]: 4 h; AUC(0-inf) [53]: 2.72 µM·h; AUC(0-inf) [54]: 322 µM·h; AUC(0-inf) [55]: 33.8 µM·h; EC50 [56]: 0.027 µM; AUC [57]: 3469 µM·min; bioavailability [58]: 57%; Time [59]: 8 h; Cmax [60]: 6.4 µM; Tmax [61]: 17 h; Cmax [62]: 9.53 µM
